According to patent US12084472B2 (Ardelyx, Inc., priority 2015, dated 2024):

Each compound was assayed against T1, human TGR5 (Homo sapiens, UniProt Q8TDU6) (assay: Cell-based TGR5 assay (cAMP generation, HTRF)). Details: HEK293 cells stably transfected with human TGR5; cAMP by HTRF; 30 minutes at 37° C.; read-out: pEC50 Human TGR5 (converted).
T1 construct: expressed in transfected cells; host or cells: HEK293
T1 sequence (Q8TDU6 1-330): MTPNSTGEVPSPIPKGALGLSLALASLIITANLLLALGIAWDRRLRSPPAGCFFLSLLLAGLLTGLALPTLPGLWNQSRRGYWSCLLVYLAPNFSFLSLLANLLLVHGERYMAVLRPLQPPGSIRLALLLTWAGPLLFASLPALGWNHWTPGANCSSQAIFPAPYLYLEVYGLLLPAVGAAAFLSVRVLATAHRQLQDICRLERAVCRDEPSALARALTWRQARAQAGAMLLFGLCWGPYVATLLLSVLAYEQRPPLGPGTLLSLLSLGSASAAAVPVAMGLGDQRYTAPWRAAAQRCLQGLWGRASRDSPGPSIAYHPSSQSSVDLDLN
Summary of the method: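 First, compounds in 3-fold serial dilution were placed in HBSS with 10 mM HEPES pH 7.4 and 0.5 mM IBMX. Next, human TGR5-expressing HEK293 cells were added and incubated 30 min at 37° C. Finally, cAMP was detected by HTRF and pEC50 derived by logistic fitting.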

SMILES	EC50 [nM]
CN(CCOCCNC(=O)N[C@@H](CO)[C@@H](O)[C@H](O)[C@H](O)CO)S(=O)(=O)c1ccc(Cl)c(COC2(c3cnccc3-c3ccccc3OC3CC3)CC2)c1 (stereo in doubt) [Compound I-406, 1-(2-{2-[N-methyl4-chloro-3-({1-[4-(2-cyclopropoxyphenyl)pyridin-3-yl]cyclopropoxy}methyl)benzenesulfonamido]ethoxy}ethyl)-3-[(2S,3R,4S,5R)-1,3,4,5,6-pentahydroxyhexan-2-yl]urea]	< 100
O=C(NCC1CCCN(S(=O)(=O)c2ccc(Cl)c(COC3(c4cnccc4-c4ccccc4OC4CC4)CC3)c2)C1)NC[C@H](O)[C@@H](O)[C@H](O)[C@H](O)CO (stereo in doubt) [Compound I-426, 1-({1-[4-chloro-3-({1-[4-(2-cyclopropoxyphenyl)pyridin-3-yl]cyclopropoxy}methyl)benzenesulfonyl]piperidin-3-yl}methyl)-3-[(2S,3R,4R,5R)-2,3,4,5,6-pentahydroxyhexyl]urea]	< 100
Clc1ccc(Cl)c(CNC2(c3cnccc3-c3ccccc3OC3CC3)CC2)c1 [Compound I-1, 1-[4-(2-cyclopropoxyphenyl)pyridin-3-yl]-N-[(2,5-dichlorophenyl)methyl]cyclopropan-1-amine]	< 100
CC(C)Oc1ccccc1-c1ccncc1C1(NCc2cc(Cl)ccc2Cl)CC1 [Compound I-2, N-[(2,5-dichlorophenyl)methyl]-1-{4-[2-(propan-2-yloxy)phenyl]pyridin-3-yl}cyclopropan-1-amine]	< 100
Fc1ccc(OC2CC2)c(-c2ccncc2C2(NCc3cc(Cl)ccc3Cl)CC2)c1 [Compound I-3, 1-[4-(2-cyclopropoxy-5-fluorophenyl)pyridin-3-yl]-N-[(2,5-dichlorophenyl)methyl]cyclopropan-1-amine]	< 100
COc1ccccc1-c1ccncc1C1(NCc2cc(Cl)ccc2Cl)CC1 [Compound I-4, N-[(2,5-dichlorophenyl)methyl]-1-[4-(2-methoxyphenyl)pyridin-3-yl]cyclopropan-1-amine]	126 to 1000
Clc1ccc(Cl)c(CNC2(c3cnccc3-c3ccccc3OC3CCC3)CC2)c1 [Compound I-5, 1-[4-(2-cyclobutoxyphenyl)pyridin-3-yl]-N-[(2,5-dichlorophenyl)methyl]cyclopropan-1-amine]	126 to 1000
Cc1ccccc1-c1ccncc1C1(NCc2cc(Cl)ccc2Cl)CC1 [Compound I-6, N-[(2,5-dichlorophenyl)methyl]-1-[4-(2-methylphenyl)pyridin-3-yl]cyclopropan-1-amine]	126 to 1000

Second part, the compound after the results:

EC50 [nM]	SMILES
126 to 1000	O=C(NCCCCc1ccc(Cl)c(CNC2(c3cnccc3-c3ccccc3OC3CC3)CC2)c1)NC[C@H](O)[C@@H](O)[C@H](O)[C@H](O)CO (stereo in doubt) [Compound I-241, 1-(4-{4-chloro-3-[({1-[4-(2-cyclopropoxyphenyl)pyridin-3-yl]cyclopropyl}amino)methyl]phenyl}butyl)-3-[(2S,3R,4R,5R)-2,3,4,5,6-pentahydroxyhexyl]urea]
< 100	O=C(NCCCCNS(=O)(=O)c1ccc(Cl)c(COC2(c3cnccc3-c3ccccc3OC3CC3)CC2)c1)NC[C@H](O)[C@@H](O)[C@H](O)[C@H](O)CO (stereo in doubt) [Compound I-401, 1-{4-[4-chloro-3-({1-[4-(2-cyclopropoxyphenyl)pyridin-3-yl]cyclopropoxy}methyl)benzenesulfonamido]butyl}-3-[(2S,3R,4R,5R)-2,3,4,5,6-pentahydroxyhexyl]urea]
< 100	CN(CCCCNC(=O)NC[C@H](O)[C@@H](O)[C@H](O)[C@H](O)CO)S(=O)(=O)c1ccc(Cl)c(COC2(c3cnccc3-c3ccccc3OC3CC3)CC2)c1 (stereo in doubt) [Compound I-402, 1-{4-[N-methyl4-chloro-3-({1-[4-(2-cyclopropoxyphenyl)pyridin-3-yl]cyclopropoxy}methyl)benzenesulfonamido]butyl}-3-[(2S,3R,4R,5R)-2,3,4,5,6-pentahydroxyhexyl]urea]
< 100	O=C(NCCOCCNS(=O)(=O)c1ccc(Cl)c(COC2(c3cnccc3-c3ccccc3OC3CC3)CC2)c1)NC[C@H](O)[C@@H](O)[C@H](O)[C@H](O)CO (stereo in doubt) [Compound I-403, 1-(2-{2-[4-chloro-3-({1-[4-(2-cyclopropoxyphenyl)pyridin-3-yl]cyclopropoxy}methyl)benzenesulfonamido]ethoxy}ethyl)-3-[(2S,3R,4R,5R)-2,3,4,5,6-pentahydroxyhexyl]urea]
< 100	CN(CCOCCNC(=O)NC[C@H](O)[C@@H](O)[C@H](O)[C@H](O)CO)S(=O)(=O)c1ccc(Cl)c(COC2(c3cnccc3-c3ccccc3OC3CC3)CC2)c1 (stereo in doubt) [Compound I-404, 1-(2-{2-[N-methyl4-chloro-3-({1-[4-(2-cyclopropoxyphenyl)pyridin-3-yl]cyclopropoxy}methyl)benzenesulfonamido]ethoxy}ethyl)-3-[(2S,3R,4R,5R)-2,3,4,5,6-pentahydroxyhexyl]urea]
< 100	CN(CCCCCNC(=O)N[C@@H](CO)[C@@H](O)[C@H](O)[C@H](O)CO)S(=O)(=O)c1ccc(Cl)c(COC2(c3cnccc3-c3ccccc3OC3CC3)CC2)c1 (stereo in doubt) [Compound I-405, 1-{5-[N-methyl4-chloro-3-({1-[4-(2-cyclopropoxyphenyl)pyridin-3-yl]cyclopropoxy}methyl)benzenesulfonamido]pentyl}-3-[(2S,3R,4S,5R)-1,3,4,5,6-pentahydroxyhexan-2-yl]urea]
< 100	COCCN(CCCCNC(=O)NC[C@H](O)[C@@H](O)[C@H](O)[C@H](O)CO)S(=O)(=O)c1ccc(Cl)c(COC2(c3cnccc3-c3ccccc3OC3CC3)CC2)c1 (stereo in doubt) [Compound I-407, 1-{4-[N-(2-methoxyethyl)4-chloro-3-({1-[4-(2-cyclopropoxyphenyl)pyridin-3-yl]cyclopropoxy}methyl)benzenesulfonamido]butyl}-3-[(2S,3R,4R,5R)-2,3,4,5,6-pentahydroxyhexyl]urea]
< 100	O=C(NCCOCCNS(=O)(=O)c1ccc(Cl)c(COC2(c3cnccc3-c3ccccc3OC3CC3)CC2)c1)N[C@@H](CO)[C@@H](O)[C@H](O)[C@H](O)CO (stereo in doubt) [Compound I-408, 1-(2-{2-[4-chloro-3-({1-[4-(2-cyclopropoxyphenyl)pyridin-3-yl]cyclopropoxy}methyl)benzenesulfonamido]ethoxy}ethyl)-3-[(2S,3R,4S,5R)-1,3,4,5,6-pentahydroxyhexan-2-yl]urea]
< 100	O=C(NCCCCCNS(=O)(=O)c1ccc(Cl)c(COC2(c3cnccc3-c3ccccc3OC3CC3)CC2)c1)N[C@@H](CO)[C@@H](O)[C@H](O)[C@H](O)CO (stereo in doubt) [Compound I-409, 1-{5-[4-chloro-3-({1-[4-(2-cyclopropoxyphenyl)pyridin-3-yl]cyclopropoxy}methyl)benzenesulfonamido]pentyl}-3-[(2S,3R,4S,5R)-1,3,4,5,6-pentahydroxyhexan-2-yl]urea]
< 100	O=C(NCCCCNS(=O)(=O)c1ccc(Cl)c(COC2(c3cnccc3-c3ccccc3OC3CC3)CC2)c1)N[C@@H](CO)[C@@H](O)[C@H](O)[C@H](O)CO (stereo in doubt) [Compound I-410, 1-{4-[4-chloro-3-({1-[4-(2-cyclopropoxyphenyl)pyridin-3-yl]cyclopropoxy}methyl)benzenesulfonamido]butyl}-3-[(2S,3R,4S,5R)-1,3,4,5,6-pentahydroxyhexan-2-yl]urea]
